Source: patent US8518997B2, “4-(phenoxyalkyl)thio)-phenoxyacetic acids and analogs” (Janssen Pharmaceutica N.V., priority 2003, dated 2013)
One block for each molecule: values may come before it.

Tests used:
[1] = target: T1, PPAR delta (Homo sapiens, UniProt Q03181); test: Transfection assay for PPAR receptors (PPAR-Gal4 / Gal4-Luciferase reporter in HEK293 cells); format: cell-based
T1 sequence (Q03181 171-441 limits assumed): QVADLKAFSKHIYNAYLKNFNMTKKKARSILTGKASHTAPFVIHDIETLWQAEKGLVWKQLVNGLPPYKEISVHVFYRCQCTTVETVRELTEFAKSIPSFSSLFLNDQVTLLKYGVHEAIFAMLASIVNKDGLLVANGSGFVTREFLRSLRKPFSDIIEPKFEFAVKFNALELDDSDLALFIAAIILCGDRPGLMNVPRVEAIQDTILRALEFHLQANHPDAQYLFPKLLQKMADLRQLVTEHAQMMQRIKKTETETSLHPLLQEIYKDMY
Method: Transfection Assay Method for PPAR Receptors
HEK293 cells were grown in DMEM/F-12 Media supplemented with 10% FBS and glutamine (GIBCOBRL). The cells were co-transfected with DNA for PPAR-Gal4 (PPARα, γ or δ) receptor and Gal4-Luciferase Reporter using the DMRIE-C Reagent. On the following day, the medium was replaced with 5% Charcoal treated FBS growth medium. After six hours, cells were trypsinized and seeded at a density of 50,000 cell/well into 96 well plates and incubated overnight at 37° C. in a 5% CO2 incubator. Cells were then treated with test compounds or vehicle and incubated for 24 hours at 37° C. in a 5% CO2 incubator. Luciferase activity was assayed using the Steady-Glo Luciferase Assay Kit from Promega. […] Steady-Glo Luciferase Assay Kit was purchased from Promega Part# E254B.

[2] = tested on: differentiated THP-1 monocytes; settings: cited from earlier work

EC50 ([1]; HEK293 cells co-transfected with PPAR-Gal4 (δ) receptor and Gal4-Luciferase reporter, 24 hours, multiple EC50's = multiple measurements, Table 2): 0.618 µM
SMILES: Cc1cc(OCC(O)COc2ccc(C(F)(F)F)cc2)ccc1OCC(=O)O (stereo not shown) [Compound 45]

SMILES: Cc1cc(SCc2sc(-c3ccc(C(F)(F)F)cc3)nc2C)ccc1OCC(=O)O [GW501516]
ABCA1 mRNA expression [2]: induced
cholesterol efflux [2]: enhanced

EC50 ([1]; Table 3 compounds of interest, tested likewise): 0.0176 µM
SMILES: Cc1cc(SCCCOc2ccc(C(F)(F)F)cc2)ccc1OCC(=O)O [{2-Methyl-4-[3-(4-trifluoromethyl-phenoxy)-propylsulfanyl]-phenoxy}-acetic acid]
